# Values quoted from earlier work in patent publication US11779591B2, “Compositions containing decitabine, 5azacytidine and tetrahydrouridine and uses thereof” (Epidestiny, Inc., priority 2015, dated 2023).
# Conditions: rapid deamination by CDA
smiles,measurement,value
"Nc1ccn([C@@H]2O[C@H](CO)[C@@H](O)[C@@H]2[18F])c(=O)n1 [FAC, 1-(2′-deoxy-2′-[18F]-fluoro-β-D-arabinofuranosyl)cytosine]",distribution into solid tissues such as the liver and kidneys,did not adequately distribute into solid tissues
